From paper PMC8793051 (ACS Omega, 2022)

Columns and labels:
A498 = experiment: NCI-60 SRB growth assay; format: cell-based, human
HOP-62 = experiment: NCI-60 SRB growth assay; format: cell-based, human; conditions: HOP-62
LOX IMVI = experiment: NCI-60 SRB growth assay; format: cell-based, human
NCI-H226 = experiment: NCI-60 SRB growth assay; format: cell-based, human
A549/ATCC = experiment: NCI-60 SRB growth assay; format: cell-based, human
KM12 = experiment: NCI-60 SRB growth assay; format: cell-based, human
SF-539 = experiment: NCI-60 SRB growth assay; format: cell-based, human
EKVX = experiment: NCI-60 SRB growth assay; format: cell-based, human
NCI-H522 = experiment: NCI-60 SRB growth assay; format: cell-based, human
U251 = experiment: NCI-60 SRB growth assay; format: cell-based, human
HCT-15 = experiment: NCI-60 SRB growth assay; format: cell-based, human; conditions: HCT-15
HS 578T = experiment: NCI-60 SRB growth assay; format: cell-based, human
BT-549 = experiment: NCI-60 SRB growth assay; format: cell-based, human; conditions: BT-549
CCRF-CEM = experiment: NCI-60 SRB growth assay; format: cell-based, human
786-0 = experiment: NCI-60 SRB growth assay; format: cell-based, human
[1] = test system: oligo-2: d(CGATGTACATCG)2; experiment: UV thermal denaturation; format: binding
[2] = test system: oligo-1: d(CGCGAATTCGCG)2; experiment: UV thermal denaturation; format: binding
MDA-MB-468 = experiment: NCI-60 SRB growth assay; format: cell-based, human; conditions: MDA-MB-468
[3] = test system: panel of 60 human cancer cell lines; experiment: cells; conditions: read-out: GI50 concentration range
NCI-H23 = experiment: NCI-60 SRB growth assay; format: cell-based, human
MOLT-4 = experiment: NCI-60 SRB growth assay; format: cell-based, human
OVCAR-5 = experiment: NCI-60 SRB growth assay; format: cell-based, human
OVCAR-3 = experiment: NCI-60 SRB growth assay; format: cell-based, human
UACC-62 = experiment: NCI-60 SRB growth assay; format: cell-based, human
SW-620 = experiment: NCI-60 SRB growth assay; format: cell-based, human; conditions: Homo sapiens
HEK = experiment: MTT cytotoxicity assay; format: cell-based; conditions: Homo sapiens, HEK293, 48 h
M14 = experiment: NCI-60 SRB growth assay; format: cell-based, human; conditions: M14
HCT-116 = experiment: NCI-60 SRB growth assay; format: cell-based, human; conditions: HCT-116
RXF 393 = experiment: NCI-60 SRB growth assay; format: cell-based, human
MALME-3M = experiment: NCI-60 SRB growth assay; format: cell-based, human
HCC-2998 = experiment: NCI-60 SRB growth assay; format: cell-based, human
PC-3 = experiment: NCI-60 SRB growth assay; format: cell-based, human

## CCCCN1CCN(c2ccc3[nH]c(-c4ccc5[nH]c(-c6ccc(C(F)(F)F)cc6)nc5c4)nc3c2)CC1 [12b, 5-(5-(4-Butylpiperazin-1-yl)-1H-benzo[d]imidazol-2-yl)2(4(trifluoromethyl)phenyl)-1H-benzo[d]imidazole]
A498; A498
  TGI: 3310 nM
A498; Homo sapiens, A498
  GI50: 1690 nM
A498; Homo sapiens, A498, read-out: LC50
  CC50: 6490 nM
HOP-62
  TGI: 3050 nM
HOP-62; Homo sapiens
  GI50: 1300 nM
LOX IMVI
  TGI: 1100 nM
LOX IMVI; Homo sapiens
  GI50: 380 nM
NCI-H226; Homo sapiens, NCI-H226
  GI50: 1570 nM
NCI-H226; NCI–H226
  TGI: 3590 nM
A549/ATCC; A549/ATCC
  TGI: 1190 nM
A549/ATCC; Homo sapiens, A549
  GI50: 350 nM
KM12; Homo sapiens, KM12
  GI50: 670 nM
KM12; Homo sapiens, KM12, read-out: LC50
  CC50: 4900 nM
KM12; KM12
  TGI: 2040 nM
SF-539; Homo sapiens, SF-539
  GI50: 1600 nM
SF-539; Homo sapiens, SF-539, read-out: LC50
  CC50: 5800 nM
SF-539; SF-539
  TGI: 3050 nM
EKVX
  TGI: 2900 nM
EKVX; Homo sapiens
  GI50: 1500 nM
EKVX; Homo sapiens, read-out: LC50
  CC50: 5700 nM
NCI-H522; Homo sapiens, NCI-H522
  GI50: 1600 nM
NCI-H522; NCI–H522
  TGI: 3600 nM
U251; Homo sapiens, U-251
  GI50: 240 nM
U251; U251
  TGI: 560 nM
HCT-15
  TGI: 740 nM
HCT-15; Homo sapiens
  GI50: 270 nM
HS 578T; HS578T
  TGI: 3.05 - μM
HS 578T; Homo sapiens, Hs-578T
  GI50: 1260 nM
BT-549
  TGI: 3150 nM
BT-549; Homo sapiens
  GI50: 1620 nM
CCRF-CEM
  TGI: 1030 nM
CCRF-CEM; Homo sapiens
  GI50: 300 nM
CCRF-CEM; Homo sapiens, read-out: LC50
  CC50: 5040 nM
786-0; 786–0
  TGI: 3040 nM
786-0; Homo sapiens, 786-0
  GI50: 1470 nM
[1]; r = 0.5
  ΔTm: 1 °C
[1]; r = 0.5, oligo 2.5 μM
  Tm: 57.9 °C
[1]; r = 1
  Tm: 58.9 °C
  ΔTm: 2 °C
[1]; r = 1.5
  Tm: 58.9 °C
  ΔTm: 2 °C
[1]; r = 2.0
  Tm: 59.9 °C
  ΔTm: 3 °C
[2]; r = 0.5
  ΔTm: 3 °C
[2]; r = 0.5, oligo 2.5 μM
  Tm: 57.7 °C
[2]; r = 1
  Tm: 58.7 °C
  ΔTm: 4 °C
[2]; r = 1.5
  Tm: 59.7 °C
  ΔTm: 5 °C
[2]; r = 2.0
  Tm: 61.7 °C
  ΔTm: 7 °C
MDA-MB-468; Homo sapiens
  GI50: 1660 nM
MDA-MB-468
  TGI: 3340 nM
[3]
  GI50: 160 to 3600 nM
NCI-H23; Homo sapiens, NCI-H23
  GI50: 1650 nM
NCI-H23; Homo sapiens, NCI-H23, read-out: LC50
  CC50: 6800 nM
NCI-H23; NCI–H23
  TGI: 3360 nM
MOLT-4; Homo sapiens, MOLT-4
  GI50: 1070 nM
MOLT-4; Homo sapiens, MOLT-4, read-out: LC50
  CC50: 6300 nM
MOLT-4; MOLT-4
  TGI: 2500 nM
OVCAR-5; Homo sapiens, OVCAR-5
  GI50: 1800 nM
OVCAR-5; Homo sapiens, OVCAR-5, read-out: LC50
  CC50: 5900 nM
OVCAR-5; OVCAR-5
  TGI: 3500 nM
OVCAR-3; Homo sapiens, OVCAR-3
  GI50: 210 nM
OVCAR-3; Homo sapiens, OVCAR-3, read-out: LC50
  CC50: 730 nM
OVCAR-3; OVCAR-3
  TGI: 400 nM
UACC-62; Homo sapiens, UACC-62
  GI50: 1500 nM
UACC-62; Homo sapiens, UACC-62, read-out: LC50
  CC50: 5800 nM
UACC-62; UACC-62
  TGI: 2900 nM
SW-620; SW-620
  GI50: 210 nM
SW-620; SW-620, read-out: LC50
  CC50: 450 nM
HEK
  IC50: 2700 nM
M14; Homo sapiens
  GI50: 370 nM
M14
  TGI: 2400 nM
HCT-116
  TGI: 420 nM
HCT-116; Homo sapiens
  GI50: 200 nM
RXF 393; Homo sapiens, RXF 393
  GI50: 470 nM
RXF 393; RXF393
  TGI: 1500 nM
MALME-3M; Homo sapiens, Malme-3M
  GI50: 1400 nM
MALME-3M; MALME-3M
  TGI: 3000 nM
HCC-2998; HCC-2998
  TGI: 3500 nM
HCC-2998; Homo sapiens, HCC 2998
  GI50: 1800 nM
HCC-2998; Homo sapiens, HCC 2998, read-out: LC50
  CC50: 6600 nM
PC-3; Homo sapiens, PC-3
  GI50: 860 nM
PC-3; Homo sapiens, PC-3, read-out: LC50
  CC50: 5500 nM
PC-3; PC-3
  TGI: 2310 nM
